Laboratory results reported in PubChem BioAssay AID248 (DTP/NCI, 2004).
Values joined by “and” are separate entries in the source; they are usually repeats but may differ in a detail not shown here. Equal values may be shown once. Toxic doses and inconclusive results are not listed.

Test system: L1210 leukemia ip in BDF1 mice, survival T/C
Assay: NCI In Vivo Anticancer Drug Screen. Data for tumor model L1210 Leukemia (intraperitoneal) in B6D2F1 (BDF1) mice
Conditions: endpoint: mean survival time, higher = longer survival
Outline: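 Transplantable tumor model; survival measured in treated vs vehicle control mice. Value = treated/control.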

[1] = dose: 100.0 mg/kg/injection, schedule: Q01DX001 (ip), vehicle: saline
[2] = dose: 200.0 mg/kg/injection, schedule: Q01DX001 (ip), vehicle: saline
[3] = dose: 400.0 mg/kg/injection, schedule: Q01DX001 (ip), vehicle: saline
[4] = dose: 100.0 mg/kg/injection, schedule: Q01DX009 (ip), vehicle: Klucel (hydroxypropylcellulose) (HPC)
[5] = dose: 100.0 mg/kg/injection, schedule: Q04DX003 (ip), vehicle: Klucel (hydroxypropylcellulose) (HPC)
[6] = dose: 200.0 mg/kg/injection, schedule: Q01DX009 (ip), vehicle: Klucel (hydroxypropylcellulose) (HPC)
[7] = dose: 200.0 mg/kg/injection, schedule: Q04DX003 (ip), vehicle: Klucel (hydroxypropylcellulose) (HPC)
[8] = dose: 400.0 mg/kg/injection, schedule: Q01DX009 (ip), vehicle: Klucel (hydroxypropylcellulose) (HPC)
[9] = dose: 400.0 mg/kg/injection, schedule: Q04DX003 (ip), vehicle: Klucel (hydroxypropylcellulose) (HPC)
[10] = dose: 100.0 mg/kg/injection, schedule: Q04DX002 (ip), vehicle: Klucel (hydroxypropylcellulose) (HPC)
[11] = dose: 200.0 mg/kg/injection, schedule: Q04DX002 (ip), vehicle: Klucel (hydroxypropylcellulose) (HPC)
[12] = dose: 100.0 mg/kg/injection, schedule: Q01DX001 (ip), vehicle: other
[13] = dose: 200.0 mg/kg/injection, schedule: Q01DX001 (ip), vehicle: other
[14] = dose: 20.0 mg/kg/injection, schedule: Q01DX001 (ip), vehicle: saline

Q: Nc1ncnc2c1c1c(N)[nH]nc1n2C1OC(CO)C(O)C1O (stereo not given) was tested. Which T/C (dose: 12.5 mg/kg/injection, schedule: Q01DX009 (ip), vehicle: saline) did it give?
A: 114 % of control

Q: What about the T/C (dose: 25.0 mg/kg/injection, schedule: Q01DX009 (ip), vehicle: saline) of the same compound?
A: 121 % of control

Q: What about the T/C (dose: 50.0 mg/kg/injection, schedule: Q01DX009 (ip), vehicle: saline) of the same compound?
A: 150 % of control

Q: What about the T/C [1] of the same compound?
A: 104 % of control

Q: And the T/C [2]?
A: 106 % of control

Q: What about the T/C [3] of the same compound?
A: 121 % of control

Q: What does the source list for COc1ccc(N2CCN(c3c4c(nc5ccccc35)CCCCC4)CC2)cc1?
A: T/C [1]: 95 % of control; T/C [2]: 106 % of control; T/C [3]: 101 % of control

Q: Which results are given for O=C(O)Cc1c(-c2ccccn2)[nH]c2ccccc12?
A: T/C (dose: 75.0 mg/kg/injection, schedule: Q01DX001 (ip), vehicle: acetone): 103 % of control; T/C (dose: 150.0 mg/kg/injection, schedule: Q01DX001 (ip), vehicle: acetone): 102 % of control; T/C (dose: 300.0 mg/kg/injection, schedule: Q01DX001 (ip), vehicle: acetone): 94 % of control

Q: Which T/C [4] does the source give for O=C(Nc1ccc(Cl)cc1)C(Cl)Cl here?
A: 98 % of control

Q: And the T/C [5]?
A: 100 % of control

Q: And the T/C [6]?
A: 98 % of control

Q: What about the T/C [7] of the same compound?
A: 100 % of control

Q: What about the T/C [8] of the same compound?
A: 102 % of control

Q: What about the T/C [9] of the same compound?
A: 102 % of control

Q: Which results are given for COc1ccc(-n2c(=O)c(N=Nc3ccc(Br)cc3)c(O)n(-c3ccc(C)cc3)c2=S)cc1?
A: T/C (dose: 50.0 mg/kg/injection, schedule: Q01DX001 (ip), vehicle: Klucel (hydroxypropylcellulose) (HPC)): 94 % of control; T/C (dose: 100.0 mg/kg/injection, schedule: Q01DX001 (ip), vehicle: Klucel (hydroxypropylcellulose) (HPC)): 92 % of control; T/C (dose: 200.0 mg/kg/injection, schedule: Q01DX001 (ip), vehicle: Klucel (hydroxypropylcellulose) (HPC)): 88 % of control

Q: What does the source list for CCCCCCCc1ccc2cccc3c2c1C(=O)c1ccccc1-3?
A: T/C [5]: 92 % of control; T/C [7]: 92 % of control; T/C [9]: 94 % of control

Q: Which results are given for COc1ccc(Cl)cc1NC(=S)Nc1ccccc1?
A: T/C [10]: 90 % of control; T/C [11]: 101 % of control; T/C (dose: 400.0 mg/kg/injection, schedule: Q04DX002 (ip), vehicle: Klucel (hydroxypropylcellulose) (HPC)): 101 % of control

Q: CCOC(=O)C/C(=C/c1ccco1)C(=O)OCC was tested. Which T/C [1] did it give?
A: 86 % of control

Q: And the T/C (dose: 100.0 mg/kg/injection, schedule: Q04DX003 (ip), vehicle: saline)?
A: 89 % of control

Q: What about the T/C [2] of the same compound?
A: 92 % of control

Q: And the T/C (dose: 200.0 mg/kg/injection, schedule: Q04DX003 (ip), vehicle: saline)?
A: 96 % of control

Q: And the T/C [3]?
A: 89 % of control

Q: And the T/C (dose: 400.0 mg/kg/injection, schedule: Q04DX003 (ip), vehicle: saline)?
A: 89 % of control

Q: How did the T/C [12] turn out when CCCCN(C)N=Nc1c(Cl)cc(Cl)cc1C(N)=O was run?
A: 106 % of control

Q: What about the T/C [5] of the same compound?
A: 106 % of control

Q: What about the T/C [13] of the same compound?
A: 107 % of control

Q: And the T/C [6]?
A: 95 % of control

Q: And the T/C (dose: 264.0 mg/kg/injection, schedule: Q01DX001 (ip), vehicle: Klucel (hydroxypropylcellulose) (HPC))?
A: 114 % of control

Q: And the T/C (dose: 400.0 mg/kg/injection, schedule: Q01DX001 (ip), vehicle: Klucel (hydroxypropylcellulose) (HPC))?
A: 124 % of control

Q: And the T/C [9]?
A: 181 % of control

Q: For COc1c(NC(=O)Nc2ccccc2Cl)cccc1[N+](=O)[O-], which T/C (dose: 400.0 mg/kg/injection, schedule: Q04DX002 (ip), vehicle: saline with Tween-80) is on record?
A: 90 % of control

Q: Which T/C [1] does the source give for CCOC(=O)N1C=Cc2c(c3ccccc3n2C)N1C(=O)OCC here?
A: 93 % of control

Q: And the T/C [2]?
A: 104 % of control

Q: What about the T/C [3] of the same compound?
A: 100 % of control

Q: With O=C1OC(c2ccccc2)(c2ccccc2)Cc2ccccc21 as the compound, how does the T/C (dose: 100.0 mg/kg/injection, schedule: Q01DX009 (ip), vehicle: saline with Tween-80) read?
A: 97 % of control

Q: And the T/C [5]?
A: 93 % of control

Q: And the T/C (dose: 200.0 mg/kg/injection, schedule: Q01DX009 (ip), vehicle: saline with Tween-80)?
A: 106 % of control

Q: And the T/C (dose: 400.0 mg/kg/injection, schedule: Q01DX009 (ip), vehicle: saline with Tween-80)?
A: 95 % of control

Q: What about the T/C [9] of the same compound?
A: 86 % of control

Q: CCCCCCCC/C=C\CCCCCCCC(=O)N1CC[N+](C)(C)CC1 was tested. Which T/C (dose: 5.0 mg/kg/injection, schedule: Q01DX001 (ip), vehicle: saline) did it give?
A: 96 % of control

Q: What about the T/C (dose: 10.0 mg/kg/injection, schedule: Q01DX001 (ip), vehicle: saline) of the same compound?
A: 104 % of control

Q: And the T/C [14]?
A: 93 % of control

Q: And the T/C (dose: 40.0 mg/kg/injection, schedule: Q01DX001 (ip), vehicle: saline)?
A: 93 % of control

Q: With NCCCNC/C=C/CNCCCN as the compound, how does the T/C (dose: 75.0 mg/kg/injection, schedule: Q04DX003 (ip), vehicle: saline) read?
A: 105 % of control

Q: And the T/C (dose: 150.0 mg/kg/injection, schedule: Q04DX003 (ip), vehicle: saline)?
A: 102 % of control

Q: What about the T/C (dose: 300.0 mg/kg/injection, schedule: Q04DX003 (ip), vehicle: saline) of the same compound?
A: 104 % of control

Q: Which results are given for CC(O)NC(=O)C1CC2c3cccc4[nH]cc(c34)CC2N(C)C1 (stereo not given)?
A: T/C [5]: 100 % of control; T/C [7]: 97 % of control; T/C [9]: 105 % of control

Q: For O=C(Nc1cccc(Cl)c1)C1CCCC1=Nc1cccc(Cl)c1 (stereo not given), which T/C (dose: 50.0 mg/kg/injection, schedule: Q01DX001 (ip), vehicle: saline) is on record?
A: 103 % of control

Q: And the T/C [1]?
A: 100 % of control

Q: What about the T/C [2] of the same compound?
A: 103 % of control

Q: And the T/C [3]?
A: 94 % of control

Q: Which results are given for CCOC(=O)NCC1(c2ccccc2)CCNCC1?
A: T/C (dose: 20.0 mg/kg/injection, schedule: Q04DX003 (ip), vehicle: Klucel (hydroxypropylcellulose) (HPC)): 102 % of control; T/C (dose: 40.0 mg/kg/injection, schedule: Q04DX003 (ip), vehicle: Klucel (hydroxypropylcellulose) (HPC)): 102 % of control; T/C (dose: 80.0 mg/kg/injection, schedule: Q04DX003 (ip), vehicle: Klucel (hydroxypropylcellulose) (HPC)): 102 % of control

Q: Which results are given for CC(=O)N1Cc2nc(N)nc(N)c2C1?
A: T/C (dose: 100.0 mg/kg/injection, schedule: Q01DX001 (ip), vehicle: carboxymethylcellulose (CMC)): 95 % of control; T/C (dose: 200.0 mg/kg/injection, schedule: Q01DX001 (ip), vehicle: carboxymethylcellulose (CMC)): 104 % of control; T/C (dose: 400.0 mg/kg/injection, schedule: Q01DX001 (ip), vehicle: carboxymethylcellulose (CMC)): 104 % of control

Q: How did the T/C [4] turn out when CCCNC(=O)Oc1cccc2cccnc12 was run?
A: 93 % of control and 95 % of control

Q: And the T/C [10]?
A: 97 % of control and 105 % of control

Q: What about the T/C [6] of the same compound?
A: 101 % of control and 112 % of control

Q: What about the T/C [11] of the same compound?
A: 102 % of control and 103 % of control

Q: What about the T/C [8] of the same compound?
A: 95 % of control

Q: With CC1(C)CC(C)(c2ccc(-n3c(-c4ccccc4)nc4ccccc4c3=O)cc2)c2ccccc2S1 (stereo not given) as the compound, how does the T/C [1] read?
A: 91 % of control

Q: What about the T/C [2] of the same compound?
A: 91 % of control

Q: And the T/C [3]?
A: 87 % of control

Q: With NC(Cn1cc(N(CCCl)CCCl)c(=O)[nH]c1=O)C(=O)O (stereo not given) as the compound, how does the T/C (dose: 2.5 mg/kg/injection, schedule: Q01DX009 (ip), vehicle: water) read?
A: 114 % of control

Q: What about the T/C (dose: 4.0 mg/kg/injection, schedule: Q01DX009 (ip), vehicle: saline) of the same compound?
A: 108 % of control

Q: What about the T/C (dose: 5.0 mg/kg/injection, schedule: Q01DX009 (ip), vehicle: water) of the same compound?
A: 122 % of control

Q: What about the T/C (dose: 6.0 mg/kg/injection, schedule: Q01DX009 (ip), vehicle: saline) of the same compound?
A: 113 % of control

Q: And the T/C (dose: 8.0 mg/kg/injection, schedule: Q01DX009 (ip), vehicle: saline)?
A: 103 % of control

Q: What about the T/C (dose: 9.0 mg/kg/injection, schedule: Q01DX009 (ip), vehicle: saline) of the same compound?
A: 111 % of control

Q: What about the T/C (dose: 14.0 mg/kg/injection, schedule: Q01DX009 (ip), vehicle: saline) of the same compound?
A: 120 % of control

Q: And the T/C (dose: 16.0 mg/kg/injection, schedule: Q01DX009 (ip), vehicle: saline)?
A: 118 % of control

Q: What about the T/C (dose: 19.0 mg/kg/injection, schedule: Q01DX001 (ip), vehicle: saline) of the same compound?
A: 97 % of control

Q: What about the T/C [14] of the same compound?
A: 121 % of control

Q: And the T/C (dose: 30.0 mg/kg/injection, schedule: Q01DX001 (ip), vehicle: saline)?
A: 115 % of control

Q: And the T/C (dose: 33.0 mg/kg/injection, schedule: Q01DX009 (ip), vehicle: saline)?
A: 98 % of control

Q: And the T/C (dose: 37.5 mg/kg/injection, schedule: Q01DX001 (ip), vehicle: saline)?
A: 114 % of control

Q: What about the T/C (dose: 45.0 mg/kg/injection, schedule: Q01DX009 (ip), vehicle: saline) of the same compound?
A: 101 % of control

Q: And the T/C (dose: 75.0 mg/kg/injection, schedule: Q01DX009 (ip), vehicle: saline)?
A: 103 % of control

Q: Which T/C [12] does the source give for CC(=O)OC1CCC(NC(=O)NCCCl)CC1 (stereo not given) here?
A: 96 % of control

Q: What about the T/C [13] of the same compound?
A: 98 % of control

Q: And the T/C (dose: 400.0 mg/kg/injection, schedule: Q01DX001 (ip), vehicle: other)?
A: 88 % of control
